From patent US9937235B2, “Lipidated peptides as anti-obesity agents” (USTAV ORGANICKE CHEMIE A BIOCHEMIE AKADEMIE VED CR, V.V.I, priority 2012, dated 2018)
Where a SMILES comes first, the peptide text is derived from it. Where no end group is shown, it is not given here. The star is where a group is joined. Myristoyl = CCCCCCCCCCCCCC(=O)*

Columns and labels:
Rhesus monkey = assay type: in vivo; settings: single SC 1.0 mg/kg or 2.0 mg/kg, overnight fasted, between 1-6 hours, vs saline
Procedure: Food intake (amount of pellets consumed) was measured in Rhesus monkey (n=4) after a single subcutaneous administration of myristoylated human PrRP20 (analog no. 55).
The study was conducted on overnight fasted animals in Meditox breeding facility (Konárovice, Czech Republic). Each animal received a subcutaneous injection of saline, or of analog 55 in a dose of 1.0 mg/kg or 2.0 mg/kg. Test item formulation was prepared in saline solution as a fresh solution, just before dosing. […] Food intake monitoring was performed 2, 4, 8 and 24 hours after single administration. […] While preferred embodiments of the present invention have been shown and described herein, it will be obvious to those skilled in the art that such embodiments are provided by way of example only. Numerous variations, changes, and substitutions will now occur to those skilled in the art without departing from the invention. It should be understood that various alternatives to the embodiments of the invention described herein may be employed in practicing the invention. It is intended that the following claims define the scope of the invention and that methods and structures within the scope of these claims and their equivalents be covered thereby.

fasted C57BL/6 mice [1] = assay: Food intake in fasted mice after SC administration; assay type: in vivo, mouse; settings: for food intake / % control: SC administration, dose not stated for these substances; for % control: food intake vs saline
In short: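 Male C57BL/6 mice, food-deprived 17 h, received saline, PrRP or lipidated analogs either SC at 1-10 mg/kg or ICV into the third ventricle at 4 nmol/mouse.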

fasted C57BL/6 mice [2] = settings: central administration, Maixnerová et al., 2011; cited from earlier work
rats = settings: ICV, third brain ventricle, Lawrence et al.; cited from earlier work
[3] = target: T1, rat PrRP receptor (GPR10) in RC-4B/C cells (Rattus norvegicus, UniProt Q64121); assay: Competitive binding to rat pituitary RC-4B/C cells; settings: ^125I-rat PrRP31, RC-4B/C cells
T1 construct: host or cells: RC-4B/C rat pituitary cell line
T1 sequence (Q64121 1-370): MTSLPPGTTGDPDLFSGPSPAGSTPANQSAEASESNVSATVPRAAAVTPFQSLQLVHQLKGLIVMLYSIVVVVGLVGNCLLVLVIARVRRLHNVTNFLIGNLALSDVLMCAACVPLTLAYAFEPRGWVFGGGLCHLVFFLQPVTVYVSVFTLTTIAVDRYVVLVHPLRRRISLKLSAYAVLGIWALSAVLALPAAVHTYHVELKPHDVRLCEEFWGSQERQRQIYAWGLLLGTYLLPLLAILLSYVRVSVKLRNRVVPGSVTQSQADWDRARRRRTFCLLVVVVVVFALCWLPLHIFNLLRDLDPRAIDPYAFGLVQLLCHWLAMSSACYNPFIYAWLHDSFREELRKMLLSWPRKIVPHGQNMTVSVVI

fasted C57BL/6 mice [4] = assay: Food intake in fasted mice after ICV administration; assay type: in vivo; settings: 4 nmol/mouse; for % control: food intake vs saline
Procedure: Male C57BL/6 mice (An Lab, Prague 4) were bred in the accredited animal facility in the Institute of Organic Chemistry and Biochemistry, Czech Academy of Sciences, Prague, at the Institute of Molecular Genetics, Prague 4, at the temperature of 22±2° C. with access to food and water ad libitum. The day/night cycle was 12/12 hours (light turned on at 6:00 am). Animals were treated according to the Animal Protection Act (Act No. 246/1992). The males were fed standard chow diet St-1 (Mlýn Kocanda, Praha, Czech Republic) which contained 66% saccharides, 25% proteins and 9% lipids with a caloric value of 3.4 kcal/g.
The food was withdrawn 17 hours prior to injection of lipidated peptide and free access to water was maintained. The administration of saline, PrRP or lipidated analogs was performed either by SC injection at doses of 1-10 mg/kg (volume 0.2 ml/mouse), or by ICV using infusion pump (cannulae were inserted into the third brain ventricle 4 days before the experiment following the procedure of Maixnerová et al. (Maixnerová et al., 2011)). The single dose of peptide was 4 nmol/mouse (5 μl/mouse).
Fifteen minutes after the lipidated peptide administration, the mice were given pre-weighed food. The food was then weighed every 30 minutes for 5-10 hours. The administration of every dose was performed at least twice and one group of mice consisted of at least 6 mice. The results were presented as % of food intake as compared with the control group injected with saline.
Statistical evaluation was performed using program Graph-Pad Prism Software (San Diego, Calif., USA), and the one-way ANOVA with a subsequent Dunnettovým post-hoc test. The difference in food intake between mice injected with saline and mice injected with the examined peptide were considered statistically significant at P<0.05.

[5] = system: MAPK/ERK1/2 signaling pathway in RC-4B/C cells; assay: MAPK/ERK1/2 signaling in RC-4B/C cells (Western blot); assay type: cell-based, rat; settings: 10^−6 mol·l^−1, 5 minute incubation
[6] = target: T1, rat PrRP receptor (GPR10) in RC-4B/C cells; settings: Maletínská et al., 2011; cited from earlier work
[7] = target: T2, human PrRP receptor, GPR10, transfected in CHO cells (human, UniProt P49683 1-370); assay: competition with 125I-human PrRP31 on CHO cells with transfected human GPR10
T2 construct: whole, on cells; also called human GPR10 receptor; the human receptor GPR10 in CHO cells
T2 sequence (looked up): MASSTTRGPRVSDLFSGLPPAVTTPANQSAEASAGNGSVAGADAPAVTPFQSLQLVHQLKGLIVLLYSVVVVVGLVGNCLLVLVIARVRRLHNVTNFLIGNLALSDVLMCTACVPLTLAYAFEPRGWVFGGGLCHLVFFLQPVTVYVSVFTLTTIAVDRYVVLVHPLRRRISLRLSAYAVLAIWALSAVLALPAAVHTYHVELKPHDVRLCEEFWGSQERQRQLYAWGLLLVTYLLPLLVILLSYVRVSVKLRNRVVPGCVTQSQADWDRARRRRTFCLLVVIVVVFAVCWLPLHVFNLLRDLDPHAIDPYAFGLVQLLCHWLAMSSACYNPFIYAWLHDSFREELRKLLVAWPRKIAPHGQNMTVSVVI
In short: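 Incubation lasted 60 min at room temperature. Cells were then solubilised in 0.1 mol/l NaOH and bound radioactivity γ-counted; duplicates, at least three repeats.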

[8] = target: T3, rat PrRP receptor in RC-4B/C cells (rat, UniProt Q64121 1-370); assay: competition with 125I-rat PrRP31 on RC-4B/C cells; Ki by Cheng-Prusoff
T3 construct: whole, on cells; also called the rat receptor; GPR10
T3 sequence (looked up): T1 sequence (Q64121 1-370)
Procedure: The rat pituitary cell line RC-4B/C (ATCC, Manassas, USA) was grown on 24-well plates which had their bottom coated with polyethyleneimine. The cells were grown to the optimal density of 300-450 thousand per well.
Plates were incubated for 60 minutes at room temperature. After incubation, the cells were solubilized in 0.1 mol/l solution of NaOH and the radioactivity bound to the cells was counted using a γ-counter. The experiments were performed in duplicate and repeated at least three times.

[9] = target: T3, rat PrRP receptor in RC-4B/C cells; assay: competition with 125I-human PrRP31 on RC-4B/C cells; Ki by Cheng-Prusoff
[10] = target: T3, rat PrRP receptor in RC-4B/C cells; assay: competition with 125I-rat PrRP31 on RC-4B/C cells

**Q.** For `CCCCCCCCCCCCCC(=O)N[C@H](C(=O)N1CCC[C@H]1C(=O)N[C@@H](CC(=O)O)C(=O)N[C@H](C(=O)N[C@@H](CC(N)=O)C(=O)N1CCC[C@H]1C(=O)N[C@@H](C)C(=O)N[C@@H](Cc1c[nH]c2ccccc12)C(=O)N[C@@H](Cc1ccc(O)cc1)C(=O)N[C@@H](C)C(=O)N[C@@H](CO)C(=O)N[C@@H](CCCNC(=N)N)C(=O)NCC(=O)N[C@H](C(=O)N[C@@H](CCCNC(=N)N)C(=O)N1CCC[C@H]1C(=O)N[C@H](C(=O)NCC(=O)N[C@@H](CCCNC(=N)N)C(=O)N[C@@H](Cc1ccccc1)C(N)=O)C(C)C)[C@@H](C)CC)[C@@H](C)CC)[C@@H](C)O` [Analog 55] (Myristoyl-TPDINPAWYASRGIRPVGRF-NH2), which “Food intake (amount of pellets consumed)” value (Rhesus monkey) is on record?
**A.** Significantly lower food intake

**Q.** And the “Food intake in mice (5 mg/kg SC) % saline-treated group (45 min)” value (fasted C57BL/6 mice [1]; fasted C57BL/6 mice, 5 mg/kg SC, 45 min)?
**A.** 10%

**Q.** With “PrRP13: tridecapeptide PrRP13 (containing amino acids 18 to 31 of PrRP31) (AWYASRGIRPVGRF; ends and bridges not checked; UniProt P81277 40-53, looked up, fragment)” as the molecule, how does the “anorexigenic activity in mice” value (fasted C57BL/6 mice [2]) read?
**A.** not sufficient for maintaining the anorexigenic activity

**Q.** With “SRAHQHSMETRTPDINPAWYTGRGIRPVGRF-NH2 [PrRP31, reference compound]” as the molecule, how does the “food intake in rats” value (rats) read?
**A.** significant lowering of food intake

**Q.** What about the “% of PrRP31 binding” value [3] of the same molecule?
**A.** 100%

**Q.** What about the “food intake” value (fasted C57BL/6 mice [4]; 45 minutes) of the same molecule?
**A.** 0.42 g

**Q.** And the “% control” value (fasted C57BL/6 mice [4]; 45 minutes)?
**A.** 75%

**Q.** What about the “food intake” value (fasted C57BL/6 mice [4]; 300 minutes) of the same molecule?
**A.** 1.37 g

**Q.** What about the “% control” value (fasted C57BL/6 mice [4]; 300 minutes) of the same molecule?
**A.** 104%

**Q.** What about the “food intake” value (fasted C57BL/6 mice [1]; 45 minutes) of the same molecule?
**A.** 0.32 g

**Q.** What about the “% control” value (fasted C57BL/6 mice [1]; 45 minutes) of the same molecule?
**A.** 100%

**Q.** And the “food intake” value (fasted C57BL/6 mice [1]; 300 minutes)?
**A.** 1.15 g

**Q.** What about the “% control” value (fasted C57BL/6 mice [1]; 300 minutes) of the same molecule?
**A.** 105%

**Q.** What about the ERK signaling [5] of the same molecule?
**A.** agonist

**Q.** With “[Tyr^31]PrRP20: N-acetylated PrRP20 analog, C-terminal phenylalanine replaced by tyrosine (Maletínská et al., 2011) (Ac-TPDINPAWYASRGIRPVGRY-NH2; ends and bridges not checked; UniProt P81277 34-53, looked up, variant F31Y)” as the molecule, how does the “Kb of binding to the pituitary cell line RC-4B/C” value [6] read?
**A.** comparable to values for PrRP31 and PrRP20

B1: myristoylated human PrRP20 (analog no. 55) (peptide)
peptide: Myristoyl-TPDINPAWYASRGIRPVGRF-NH2
SMILES: CCCCCCCCCCCCCC(=O)N[C@H](C(=O)N1CCC[C@H]1C(=O)N[C@@H](CC(=O)O)C(=O)N[C@H](C(=O)N[C@@H](CC(N)=O)C(=O)N1CCC[C@H]1C(=O)N[C@@H](C)C(=O)N[C@@H](Cc1c[nH]c2ccccc12)C(=O)N[C@@H](Cc1ccc(O)cc1)C(=O)N[C@@H](C)C(=O)N[C@@H](CO)C(=O)N[C@@H](CCCNC(=N)N)C(=O)NCC(=O)N[C@H](C(=O)N[C@@H](CCCNC(=N)N)C(=O)N1CCC[C@H]1C(=O)N[C@H](C(=O)NCC(=O)N[C@@H](CCCNC(=N)N)C(=O)N[C@@H](Cc1ccccc1)C(N)=O)C(C)C)[C@@H](C)CC)[C@@H](C)CC)[C@@H](C)O
notes: also called analog no; 13
**Q.** Which Ki [7] does the source give for B1 here?
**A.** 4.33 nM

**Q.** What about the Ki [8] of the same molecule?
**A.** 0.41 nM

**Q.** And the Ki [9]?
**A.** 0.66 nM

**Q.** And the Ki [10]?
**A.** 0.48 nM
